Source: patent US20080171072A1, “OCULAR INSERTS CONTAINING APOMORPHINE” (priority 2006, published 2008)

Experiments:
canine patients [1] = details: intravenous route
From the text: On the report forms supplied with the product, if any of these occurred the clinicians were asked to grade them on a subjective scale of 1 to 5 with a score of 1 being mild and 5 being severe. The clinicians were also asked to rate the ease of use of the inserts for each case with a score of 5 being very easy to use and 1 being very difficult.

canine patients [2] = system: canine patients
[3] = Autoclaving of the casting solution; type: physicochemical; details: preliminary trial
[4] = subjective scale, 5 severe, Median (25%-75%)

For CN1CCc2cccc3c2[C@H]1Cc1ccc(O)c(O)c1-3.Cl [intravenous apomorphine, apomorphine HCI], the “Prolonged vomiting, Frequency (%)” value (canine patients [1]; n = 32) was 3.1%, the “Sedation, Frequency (%)” value (canine patients [1]; n = 32) was 43.8% and the “Tachycardia, Frequency (%)” value (canine patients [1]; n = 32) was 15.6%. For the same molecule, the “Prolonged vomiting, Score” value (canine patients [1]; [4]) was 3 (3-3), the “Sedation, Score” value (canine patients [1]; [4]) was 2 (1-2) and the “Tachycardia, Score” value (canine patients [1]; [4]) was 2 (2-3). For the same molecule, the “% of Patients, Success” value (canine patients [2]; intravenous 0.03-0.04 mg kg-1, emesis within 15 minutes, n 32) was 90.6%, the “Time to emesis” value (canine patients [2]; intravenous 0.03-0.04 mg kg-1, median, n 32 (Success 29)) was 1.0 min and the “% of Patients, Failure” value (canine patients [2]; intravenous 0.03-0.04 mg kg-1, n 32) was 9.4%. For the same molecule, the “% of patients showing no emesis at all” value (canine patients [2]; intravenous route, n 32) was 9.4%.

For CN1CCc2cccc3c2[C@H]1Cc1ccc(O)c(O)c1-3 [apomorphine], the “stability under conditions required for autoclaving” value [3] was “unstable”.
